Experiments:
[1] = tested on: L5 spinal nerve ligated rats (mechanical allodynia, Chung model of neuropathic pain); assay: Antiallodynic activity, Chung model, manually applied von Frey probes; assay type: in vivo, rat (Sprague-Dawley); details: for % Maximum Possible Effect: time of peak effect
Experimental: (§1) The procedure used to test the antiallodynic activity of a compound of Formula (I) was the procedure for the measurement of allodynia found in the Chung Model (Kim S. H. and Chung J. M., An Experimental Model for Peripheral Neuropathy Produced by Segmental Spinal Nerve Ligation in the Rat, Pain, 1992, 50, 355–363).
Pathogen-free, male albino Sprague-Dawley rats, 200 g, were purchased from Harlan Industries (Indianapolis, Ind.) and maintained on a 12-h light/dark cycle (lights on at 06:00 h) in a climate-controlled room with food and water available ad libitum up to the time of the testing and food withdrawn 18 hr prior to testing.
The rats were anesthetized with isoflurane inhalant anesthesia. The left lumbar spinal nerve at the level of L5 was tightly ligated (4-0 silk suture) distal to the dorsal root ganglion and prior to entrance into the sciatic nerve, as described by Kim and Chung. The incisions were closed and the rats were allowed to recover under conditions described above. This procedure results in mechanical allodynia in the left hind paw. The sham operation, when performed, consisted of a similar surgical procedure lacking only the final ligation of the spinal nerve. Mechanical (tactile) allodynia was assessed by recording the pressure at which the affected paw (ipsilateral to the site of nerve injury) was withdrawn from graded stimuli (von Frey filaments ranging from 4.0 to 148.1 mN) applied by hand perpendicularly to the plantar surface of the paw (between the footpads) through wire-mesh observation cages. A paw withdrawal threshold (PWT) was determined by sequentially increasing and decreasing the stimulus strength and analyzing withdrawal data using a Dixon non-parametric test, as described by Chaplan et al (Chaplan S. R., Bach F. W., Pogrel J. W., Chung J. M. and Yaksh T. L., Quantitative Assessment of Tactile Allodynia in the Rat Paw, J Neurosci Meth, 1994, 53, 55–63). Normal rats, sham operated rats, and the contralateral paw of L5 ligated rats withstand at least 148.1 mN (equivalent to 15 g) of pressure without responding. […]

[2] = tested on: L5 and L6 spinal nerve ligated rats (mechanical allodynia); assay: Antiallodynic activity, Chung model, electronic Von Frey probes; assay type: in vivo, rat (Rj: Wistar (Han)); details: for % Change (force required to induce paw-withdrawal vs controls): ligatured paw
Description: as §1
Pathogen-free, male Rj: Wistar (Han) rats (300–380 g) were purchased from Elevage Janvier, 53940 Le Genest-Saint-Isle, France. The animals were maintained on a 12-h light/dark cycle (lights on from 7:00–19:00) in a controlled ambient temperature of 21±1° C., and relative humidity maintained at 40–70%. The animals had free access to food (UAR 113) and tap water until tested.
Rats were anesthetized (sodium pentobarbital 40 mg/kg i.p.). A ligature was tied tightly around the left L5 and L6 spinal nerves. The rats received an i.m. injection of 50 000 IU Penicillin (Diamant®) and were allowed to recover. This procedure results in mechanical allodynia in the left hind paw. Two weeks after the surgery, when the allodynic state was fully developed, rats were submitted consecutively to tactile stimulation of both the non-lesioned and the lesioned hindpaws.
The animals were placed on an elevated grid floor in Plexiglass boxes (19×11.5×13 cm). The tip of an electronic Von Frey probe (Bioseb, Model 1610) was then applied with increasing pressure to the lesioned and non-lesioned hindpaws and the force required to induce paw-withdrawal was automatically recorded. Prior to receiving drug treatment all animals were submitted to tactile stimulation and assigned to treatment groups matched on the basis of their pain response. This procedure was carried out 3 times for each paw and the mean paw force was calculated to provide basic scores per animal. Data were expressed as percent change (means±SEM) of effectiveness from the controls. Statistical analysis was done using non-paired and paired Student's t tests.
As summarized in Table 2 below, the enantiomer of Formula (Ic) was evaluated at the doses 10, 30 and 100 mg/kg (n=8), administered p.o. in a volume of 5 mL/kg. Morphine ([…]) was used as reference substance. Control animals received a p.o. administration of vehicle. The test was performed blind 30, 60 and 90 minutes after drug administration.

Compound | % Maximum Possible Effect ([1]; 30 mg/Kg po, 30 minutes after oral dosing, n=5) | % Maximum Possible Effect ([1]; 100 mg/Kg po, 30 to 60 minutes after oral dosing, n=10) | Duration of antiallodynic response ([1]; 30 and 100 mg/Kg po, responses measured at 0.5, 1, 2 and 4 hours post dosing) | % Change (force required to induce paw-withdrawal vs controls) ([2]; 10 mg/kg p.o., 60 minute post-dosing, n=8) | % Change (force required to induce paw-withdrawal vs controls) ([2]; 30 mg/kg p.o., 60 minute post-dosing, n=8) | % Change (force required to induce paw-withdrawal vs controls) ([2]; 100 mg/kg p.o., 60 minute post-dosing, n=8) | Effect on non-ligatured paw withdrawal force ([2]; 10, 30 and 100 mg/Kg p.o., 60 minute post-dosing) | Anti-allodynic effect at 90 minutes post-dosing ([2]; 10, 30 and 100 mg/Kg p.o., 90 minutes post-dosing) | % Change (force required to induce paw-withdrawal vs controls) ([2]; 128 mg/Kg morphine positive control)
NC(=O)OC[C@H](OC(N)=O)c1ccccc1Cl [Formula (Ic)] | 0% | 25.7% | responses returned to baseline by one hour | 69% | 115% | 88% | without affecting the non-ligatured paw | no longer present by 90 minutes post-dosing | –
CN1CC[C@]23c4c5ccc(O)c4O[C@H]2[C@@H](O)C=C[C@H]3[C@H]1C5 [morphine, reference compound] | – | – | – | – | – | – | – | – | 38%
